The numbers were not newly measured in US11992559B2, “Microsphere formulations comprising lurasidone and methods for making and using the same” (Oakwood Laboratories, LLC, priority 2021, dated 2024), which cites them from elsewhere.

Counter-ions that a name gives are not always drawn.

The conditions of data set [1]: at 25° C.

On to `O=C1[C@@H]2[C@H]3CC[C@H](C3)[C@@H]2C(=O)N1C[C@@H]1CCCC[C@H]1CN1CCN(c2nsc3ccccc23)CC1` [lurasidone HCl, Lurasidone], for which, in data set [1], the “specific hydrophobicity log Pow” value is 5.6. The “solubility in benzyl alcohol” value (benzyl alcohol) is given as 69.19 mg/g. Moreover, the solubility in dichloromethane (dichloromethane) is given as 24.43 mg/g. In addition, for the setting “water”, the water solubility was 224 µg/mL.
